Earlier results as cited in patent US9700872B1, “Superpolar chromatographic stationary phases and extraction sorbents and their methods of synthesis” (THE FLORIDA INTERNATIONAL UNIVERSITY BOARD OF TRUSTEES, priority 2016, dated 2017).

conditions: octanol/water; Top 100 EPA Priority Pollutants (Table 2)

Row | Compound | Log Kow
1 | Clc1ccccc1Cl [1,2-Dichlorobenzene] | 3.4
2 | Brc1ccc(Oc2ccccc2)cc1 [4-Bromophenyl phenyl ether] | 4.4
3 | Clc1ccc(Oc2ccccc2)cc1 [4-Chlorophenyl phenyl ether] | 4.3
4 | c1cc2c3c(cccc3c1)CC2 [Acenaphthene] | 3.9
5 | C1=Cc2cccc3cccc1c23 [Acenaphthylene] | 3.7
6 | c1ccc2cc3ccccc3cc2c1 [Anthracene] | 4.4
7 | c1ccc2c(c1)cc1ccc3cccc4ccc2c1c34 [Benzo(a)pyrene] | 6
8 | CCCCC(CC)COC(=O)c1ccccc1C(=O)OCC(CC)CCCC (centres unmarked) [Bis(2-Ethylhexyl)phthalate] | 7.4
9 | Clc1ccccc1 [Chlorobenzene] | 2.84
10 | CCCl [Chloroethane] | 1.2
11 | CCCCOC(=O)c1ccccc1C(=O)OCCCC [Di-N-butyl phthalate] | 4.7
12 | CCOC(=O)c1ccccc1C(=O)OCC [Diethyl phthalate] | 2.5
13 | c1ccc2c(c1)Cc1ccccc1-2 [Fluorene] | 4.2
14 | CC1=CC(=O)CC(C)(C)C1 [Isophorone] | 1.6
15 | c1ccc2c(c1)ccc1ccccc12 [Phenanthrene] | 4.5

same assay, conditions: octanol/water; exemplary polyhydroxy molecules (Table 1)

Row | Log Kow | Compound
16 | −3.1 | OC[C@@H](O)[C@@H](O)[C@H](O)[C@@H](O)CO [Sorbitol]
17 | −1.5 | OC[C@H]1O[C@H](O[C@]2(CCl)O[C@H](CCl)[C@@H](O)[C@@H]2O)[C@H](O)[C@@H](O)[C@H]1Cl [Sucralose]
